Data set [1] can be described thus: Absorbance and fluorescence spectra of the dye in distilled water (spectrophotometer / fluorescence spectrophotometer). Format: physicochemical. Particulars: for maximum absorption wavelength / maximum fluorescence wavelength / maximum excitation wavelength: 0.001 mg/mL in distilled water; for maximum absorption wavelength: absorbance measured 200 to 750 nm; for maximum fluorescence wavelength: excited at maximum absorption wavelength; for maximum fluorescence wavelength / maximum excitation wavelength: fluorescence spectrophotometer; for fluorescence in solution state: stain prepared as a solution, red wavelength region. As for the experimental part: Brilliant Green (manufactured by Sigma-Aldrich Company, B4014-25G) was adjusted with distilled water to a concentration of 0.001 mg/mL, and the light absorbance was continuously measured over a wavelength range from 200 to 750 nm using a spectrophotometer (manufactured by Shimadzu Corporation, BioSpec-1600) to determine the wavelength at which the absorption was the maximum. The maximum absorption wavelength of 625 nm thus obtained was irradiated as an excitation wavelength, and the wavelength of the scattered light detected in the perpendicular direction to the light axis of the excitation light was measured using a fluorescence spectrophotometer (manufactured by Shimadzu Corporation, RF-1500), thus to obtain a maximum fluorescence wavelength of 625 nm. The maximum excitation wavelength measured using this fluorescence spectrophotometer was 627 nm.
This implies that the compound is not undergoing the process of excitation by an irradiated light and emission of fluorescence.
As a comparison to Brilliant Green, the wavelength pattern of Rhodamine B, which stains the inner part of cells in the lumen of the large intestine or the like in the same manner as Brilliant Green does, was measured.

The target of data set [2] is T1, Albumin (from Bovine Serum, Globulin Free) (Bos taurus, UniProt P02769).
T1 construct: Albumin (from Bovine Serum, Globulin Free); purchased Wako Pure Chemical Industries, Ltd. 013-15104; host or cells: bovine serum
T1 sequence (P02769 25-607): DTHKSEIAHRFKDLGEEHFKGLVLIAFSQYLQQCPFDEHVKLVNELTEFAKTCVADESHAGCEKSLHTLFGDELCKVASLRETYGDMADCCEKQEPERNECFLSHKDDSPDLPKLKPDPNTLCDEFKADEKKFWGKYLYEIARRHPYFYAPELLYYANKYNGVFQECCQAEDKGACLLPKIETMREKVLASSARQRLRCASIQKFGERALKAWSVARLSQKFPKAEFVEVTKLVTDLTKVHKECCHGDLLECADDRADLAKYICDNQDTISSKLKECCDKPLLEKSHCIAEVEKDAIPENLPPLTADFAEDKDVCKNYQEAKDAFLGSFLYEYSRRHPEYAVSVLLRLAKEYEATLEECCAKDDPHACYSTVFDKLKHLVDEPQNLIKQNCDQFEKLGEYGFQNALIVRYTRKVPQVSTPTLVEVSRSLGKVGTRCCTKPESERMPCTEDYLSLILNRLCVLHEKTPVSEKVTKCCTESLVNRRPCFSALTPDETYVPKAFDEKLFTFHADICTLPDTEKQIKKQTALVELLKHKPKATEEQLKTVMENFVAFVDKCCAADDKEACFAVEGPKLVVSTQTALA
As to the kind of experiment: Fluorescence spectrum of liquid mixture of Brilliant Green and albumin. The format is physicochemical. On the procedure: Brilliant Green (manufactured by Sigma-Aldrich Company, B4014-25G) was prepared as a solution at 0.1 mg/mL using distilled water. Albumin (from Bovine Serum, Globulin Free; Wako Pure Chemical Industries, Ltd., 013-15104) was prepared as a solution at 2.0 mg/mL using physiological saline. Using a 0.1 M phosphate buffer solution (pH 5) and the 2.0 mg/mL albumin solution prepared above, a liquid mixture of 0.01 mg/mL Brilliant Green and albumin was prepared. The maximum absorption wavelength of Brilliant Green of 625 nm was irradiated as the excitation wavelength, and the wavelength of the scattered light detected in the perpendicular direction to the light axis of the excitation light, was measured using a spectrophotometer (manufactured by Shimadzu Corporation, RF-1500). The maximum fluorescence wavelength was 651 nm.
As a comparison to the liquid mixture of Brilliant Green and albumin, the maximum fluorescence wavelength of an albumin solution was measured with respect to an excitation wavelength of 625 nm, which was shown in FIG. 4.

A further data set relates to large intestine. Briefly: Fluorescence observation of extracted large intestine stained with the dye, confocal microscope. More on the design: species or system mouse. As for the experimental part: Brilliant Green (manufactured by Sigma-Aldrich Company, B4014-25G) was prepared as a solution using distilled water, and the concentration was adjusted to 1.0 mg/mL.
A mouse (ddY, 13 weeks old, male) was subjected to laparotomy under anesthesia, and the large intestine was extracted. Immediately after extraction, the prepared solution of Brilliant Green was applied onto the large intestine, and fluorescence observation of the specimen by a confocal imaging system using a confocal microscope (manufactured by Leica Corp., TCPSP2) was performed. Here, the stainability, penetrability, and fluorescence properties of Brilliant Green were examined.
Observation was performed for the cross-sections at every 5 μm from the luminal surface layer of the flesh specimen of extracted large intestine, to the depth direction (FIG. 5).

Consider three compounds from US20080069776A1, “HISTOFLUORESCENT STAIN FOR ENDOSCOPY” (PENTAX CORPORATION, priority 2006, published 2008).

In data set [1], `CCN(Cc1cccc(S(=O)(=O)[O-])c1)c1ccc(C(=C2C=CC(=[N+](CC)Cc3cccc(S(=O)(=O)[O-])c3)C=C2)c2ccccc2S(=O)(=O)[O-])cc1.[Na+].[Na+]` [Brilliant Blue FCF, reference compound] returned a maximum absorption wavelength of 629 nm, a maximum fluorescence wavelength of 650 nm and a maximum excitation wavelength of 619 nm.

On to `CCN(CC)c1ccc(C(=C2C=CC(=[N+](CC)CC)C=C2)c2ccccc2)cc1.O=S(=O)([O-])O` [Brilliant Green], for which the maximum fluorescence wavelength in data set [2] (0.01 mg/mL Brilliant Green with albumin, 0.1 M phosphate buffer pH 5, excitation 625 nm) was found to be 651 nm. Moreover, in data set [2] (light source in the red wavelength region), the “fluorescence when bound to albumin” value is on record as “emits fluorescence, when bound to albumin”. Also, in data set [1], the maximum absorption wavelength is on record as 625 nm, the maximum fluorescence wavelength is reported as 625 nm, the maximum excitation wavelength was 627 nm and the “fluorescence in solution state” value was “no fluorescence was detected”. Also, the “depth to which observation could be sufficiently made from the luminal surface layer” value in the data set with large intestine (1.0 mg/mL solution applied onto extracted mouse large intestine, cross-sections every 5 μm) was 35 μm. The “stainability of the tissue (cross-sectional images)” value with large intestine (1.0 mg/mL, sites 10 μm and 15 μm deep from the surface layer) is on record as “The cytoplasm is well stained, while the interstitial space is contrastively dark”.

For `CCN(CC)c1ccc2c(-c3ccccc3C(=O)O)c3ccc(=[N+](CC)CC)cc-3oc2c1.[Cl-]` [Rhodamine B, reference compound], in data set [1], the “fluorescence in solution state” value is reported as “exhibits intense fluorescence even in a solution state”.
